In patent US20220304862A1, “Method And Device For Substance Delivery To The Inner Ear” (UNIVERSITY OF BRIGHTON, priority 2019, published 2022):

Test system: auditory nerve
Method: Pigmented guinea pigs of similar weight (350-360 g) were anaesthetised with the neurolept anaesthetic technique (0.06 mg/kg body weight atropine sulphate s.c., 30 mg/kg pentobarbitone i.p., 500 μl/kg Hypnorm i.m.). Additional injections of Hypnorm were given every 40 minutes. Additional doses of pentobarbitone were administered as needed to maintain a non-reflexive state. The heart rate was monitored with a pair of skin electrodes placed on both sides of the thorax. The animals were tracheotomized and artificially respired, and their core temperature was maintained at 38° C. with a heating blanket and a heated head holder.
The middle ear cavity of the ear used for the measurements was opened to reveal the round window. Compound action potentials of the auditory nerve were measured from the cochlear bony ridge in the proximity of the round window membrane using Teflon-coated silver wire coupled to laboratory designed and built extracellular amplifier (James Hartley). Thresholds of the N1 peak of the compound action potentials were estimated visually using 10 ms tone stimuli at a repetition rate of 10 Hz.
For acoustic stimulation sound was delivered to the tympanic membrane by a closed acoustic system comprising two Bruel and Kjaer 4134½″ microphones for delivering tones and a single Bruel and Kjaer 4133½″ microphone for monitoring sound pressure at the tympanum. The microphones were coupled to the ear canal via 1 cm long, 4 mm diameter tubes to a conical speculum, the 1 mm diameter opening of which was placed about 1 mm from the tympanum. The closed sound system was calibrated in situ for frequencies between 1 and 50 kHz. Known sound pressure levels were expressed in dB SPL re 2×10^−5 Pa. All acoustic stimuli in this work were shaped with raised cosines of 0.5 ms duration at the beginning and at the end of stimulation. White noise for acoustical calibration and tone sequences for auditory stimulation were synthesised by a Data Translation 3010 board at 250 kHz sampling rate and delivered to the microphones through low-pass filters (100 kHz cut-off frequency). Signals from the acoustic measuring amplifier (James Hartley) were digitised at 250 kHz sampling rate using the same board and averaged in the time domain. Experimental control, data acquisition and data analysis were performed using a PC with programmes written in MATLAB.
The solution was removed from the round window using paper wicks to observe the wash out effect. […]
In the second experiments, the placement of the same volume of salicylate solution on the round window was followed by stimulation of the ear with oscillating air pressure in the ear canal during a 5-minute period with a consecutive 5-minute period without oscillating air pressure stimulation when the auditory nerve thresholds were measured. […]

Structure (SMILES): O=C([O-])c1ccccc1O.[Na+] [salicylate, sodium salicylate]
- time after which the salicylate effect saturated (oscillating pressure 4 Hz in ear canal, total pressure stimulation time, excluding the 5-minute no-pressure periods): 15 to 20 min
- effect of salicylate on the auditory nerve threshold (passive diffusion, 5 μl of 100 mM on round window, tone frequencies lower than 5 kHz (approximately apical 55% of cochlear length), FIG. 2A): no effect
- increase of threshold response to pure tones with oscillating pressure versus passive diffusion (tones 27, 21, 15, 11, 5, 3 and 1 kHz, particularly low frequencies, pooled data of 5 experiments per protocol, FIG. 4): to a far greater extent
- recovery of compound action potential thresholds after washing out of salicylate from the round window (washout after 80 min (passive) or 74 min (oscillating pressure), FIG. 2): Partial recovery
